{"source": "patent US7718764B2", "about": "“Biologically active peptide [sequence] derivatives” (CMS Peptides Patent Holding Company Limited, priority 2004, dated 2010)", "key": {"mice T-lymphocyte": {"test_system": "mice T-lymphocyte", "assay": "Mice T-lymphocyte transformation induced by ConA in vitro (spleen cells, MTT)", "type": "cell-based, BALB/c mice", "settings": "for OD: Table 2, ConA 5 μg/ml, 68 hrs", "description": "The spleens from healthy mice were isolated aseptically and manually dispersed in 10% FBS RPMI-1640 solution using an injection needle. The dispersed cell suspension was further sieved through a 100-gauge 150 μm diameter stainless steel sieve. The spleen cell suspension was adjusted to a density of 4×10^6/ml and was aliquoted onto 96-well cell culture plates at 100 μl/well. Peptides were dissolved in plain RPMI-1640. The design of the groupings was as given below.\nPeptide group: 100 μl working peptide solution+75 μl spleen cell suspension+25 μl ConA working solution.\nConA control group: 100 μl RPMI-1640+75 μl spleen cell suspension+25 μl ConA working solution.\nNegative control group: 125 μl RPMI-1640+75 μl spleen cell suspension.\nThe final concentration of ConA in the well was 5 μg/ml. The final concentrations of peptides in the well were 80 μg/ml, 16 μg/ml, 3.2 μg/ml, 0.64 μg/ml, and 0.128 μg/ml. Each peptide group contained three parallel wells, and eight or twelve wells for the control groups. The cells were incubated for 68 hrs at 37° C., 5% CO2. MTT method was used to obtain a reading of OD570 nm of each well referenced at 630 nm on an ELISA reader."}, "Heymann nephritis rats": {"test_system": "Heymann nephritis rats", "assay": "Heymann nephritis in rats: 24 hr urine protein", "type": "in vivo, Wistar rats", "description": "20 healthy Wistar rats were randomized into two groups: peptide (200 μg/kg/day) and saline treatment (2 ml/day). Two ml of antigen were intraperitoneally injected to each rat, once every two weeks, for a total of 5 rounds of injection. Test substance administration by intraperitoneal injection was started on the day after the third immunization, once per day until the end of the experiment.\nQuantification of uriner protein began at the third week of model establishment. A urine sample was collected from each rat over a 24 hour period once every […] the urine protein content quantified by the sulfosalicylic acid method.\nSample values were compared by t-test using SPSS software."}}, "data": [{"substance": "PLNPK [CMS-010.26]", "values": [{"measurement": "OD", "setting": "mice T-lymphocyte; peptide 0.128 μg/ml, ConA control 0.467 ± 0.043", "result": "0.354 ± 0.017"}, {"measurement": "OD", "setting": "mice T-lymphocyte; peptide 0.64 μg/ml, ConA control 0.467 ± 0.043", "result": "0.348 ± 0.025"}, {"measurement": "OD", "setting": "mice T-lymphocyte; peptide 3.2 μg/ml, ConA control 0.467 ± 0.043", "result": "0.332 ± 0.015"}, {"measurement": "OD", "setting": "mice T-lymphocyte; peptide 16 μg/ml, ConA control 0.467 ± 0.043", "result": "0.356 ± 0.006"}, {"measurement": "OD", "setting": "mice T-lymphocyte; peptide 80 μg/ml, MTT OD570 nm ref 630 nm, ConA control 0.467 ± 0.043, negative control 0.134 ± 0.011", "result": "0.353 ± 0.016"}, {"measurement": "Effect on mice T-lymphocyte transformation induced by ConA in vitro", "setting": "mice T-lymphocyte; at suitable concentrations, vs ConA positive control P<0.05", "result": "suppress"}, {"measurement": "24 hr. urine protein concentration Week 3", "setting": "Heymann nephritis rats; 200 μg/kg/day i.p., Week 3, saline treatment 4.1 ± 1.3", "result": "6.2 ± 2.3", "unit": "mg/dL"}, {"measurement": "24 hr. urine protein concentration Week 5", "setting": "Heymann nephritis rats; 200 μg/kg/day i.p., Week 5, saline treatment 3.1 ± 0.8", "result": "3.1 ± 1.4", "unit": "mg/dL"}, {"measurement": "24 hr. urine protein concentration Week 7", "setting": "Heymann nephritis rats; 200 μg/kg/day i.p., Week 7, saline treatment 10.9 ± 2.8", "result": "3.9 ± 1.6", "unit": "mg/dL"}, {"measurement": "24 hr. urine protein concentration Week 9", "setting": "Heymann nephritis rats; 200 μg/kg/day i.p., Week 9, saline treatment 12.6 ± 1.2", "result": "3.8 ± 2.2", "unit": "mg/dL"}, {"measurement": "Effect on severity of proteinuria in Heymann nephritis rats", "setting": "Heymann nephritis rats; at suitable dosage, vs saline treatment P<0.05", "result": "decrease"}]}]}
